Experimental data from PubChem BioAssay (NCI).
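All cell lines were grown in 96-well plates and treated with compound for 48 hours. GI50 marks 50% less growth. TGI marks complete inhibition of growth.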

Key:
Test in all cases: inhibition of tumour cell growth, NCI panel, 48 h
786-0 renal = system: 786-0 renal
A498 renal = system: A498 renal
A549 NSCLC = system: A549 NSCLC
ACHN renal = system: ACHN renal
CAKI-1 renal = system: CAKI-1 renal
CCRF-CEM leukemia = system: CCRF-CEM leukemia
COLO 205 colon = system: COLO 205 colon
DLD-1 colon = system: DLD-1 colon
DMS 114 small cell lung = system: DMS 114 small cell lung
DMS 273 small cell lung = system: DMS 273 small cell lung
EKVX NSCLC = system: EKVX NSCLC
HCC-2998 colon = system: HCC-2998 colon
HCT-116 colon = system: HCT-116 colon
HCT-15 colon = system: HCT-15 colon
HOP-18 NSCLC = system: HOP-18 NSCLC
HOP-62 NSCLC = system: HOP-62 NSCLC
HOP-92 NSCLC = system: HOP-92 NSCLC
HT29 colon = system: HT29 colon
IGROV1 ovarian = system: IGROV1 ovarian
K-562 leukemia = system: K-562 leukemia
KM12 colon = system: KM12 colon
KM20L2 colon = system: KM20L2 colon
LOX IMVI melanoma = system: LOX IMVI melanoma
LXFL 529 NSCLC = system: LXFL 529 NSCLC
M14 melanoma = system: M14 melanoma
M19-MEL melanoma = system: M19-MEL melanoma
MALME-3M melanoma = system: MALME-3M melanoma
MOLT-4 leukemia = system: MOLT-4 leukemia
NCI-H226 lung = system: NCI-H226 lung
NCI-H23 lung = system: NCI-H23 lung
NCI-H460 lung = system: NCI-H460 lung
NCI-H522 lung = system: NCI-H522 lung
OVCAR-3 ovarian = system: OVCAR-3 ovarian
OVCAR-4 ovarian = system: OVCAR-4 ovarian
OVCAR-5 ovarian = system: OVCAR-5 ovarian
OVCAR-8 ovarian = system: OVCAR-8 ovarian
RPMI-8226 leukemia = system: RPMI-8226 leukemia
RXF 393 renal = system: RXF 393 renal
SF-268 CNS = system: SF-268 CNS
SF-295 CNS = system: SF-295 CNS
SF-539 CNS = system: SF-539 CNS
SK-MEL-2 melanoma = system: SK-MEL-2 melanoma
SK-MEL-28 melanoma = system: SK-MEL-28 melanoma
SK-MEL-5 melanoma = system: SK-MEL-5 melanoma
SK-OV-3 ovarian = system: SK-OV-3 ovarian
SN12C renal = system: SN12C renal
SNB-19 CNS = system: SNB-19 CNS
SNB-75 CNS = system: SNB-75 CNS
SNB-78 CNS = system: SNB-78 CNS
SW-620 colon = system: SW-620 colon
TK-10 renal = system: TK-10 renal
U251 CNS = system: U251 CNS
UACC-257 melanoma = system: UACC-257 melanoma
UACC-62 melanoma = system: UACC-62 melanoma
UO-31 renal = system: UO-31 renal
XF 498 CNS = system: XF 498 CNS
HL-60(TB) leukemia = system: HL-60(TB) leukemia
SR leukemia = system: SR leukemia

COc1ccc2nc3cc(Cl)ccc3c(SCC(=O)Nc3ccccc3-c3ccccc3NC(=O)CSc3c4ccc(Cl)cc4nc4ccc(OC)cc34)c2c1
TGI (786-0 renal): > 100 µM
TGI (A498 renal): > 100 µM
TGI (A549 NSCLC): > 100 µM
TGI (ACHN renal): > 100 µM
TGI (CAKI-1 renal): > 100 µM
TGI (CCRF-CEM leukemia): > 100 µM
TGI (COLO 205 colon): > 100 µM
TGI (DLD-1 colon): > 100 µM
TGI (DMS 114 small cell lung): > 100 µM
TGI (DMS 273 small cell lung): > 100 µM
TGI (EKVX NSCLC): > 100 µM
TGI (HCC-2998 colon): > 100 µM
TGI (HCT-116 colon): > 100 µM
TGI (HCT-15 colon): > 100 µM
TGI (HOP-18 NSCLC): > 100 µM
TGI (HOP-62 NSCLC): > 100 µM
TGI (HOP-92 NSCLC): > 100 µM
TGI (HT29 colon): > 100 µM
TGI (IGROV1 ovarian): > 100 µM
TGI (K-562 leukemia): > 100 µM
TGI (KM12 colon): > 100 µM
TGI (KM20L2 colon): > 100 µM
TGI (LOX IMVI melanoma): > 100 µM
TGI (LXFL 529 NSCLC): > 100 µM
TGI (M14 melanoma): > 100 µM
TGI (M19-MEL melanoma): > 100 µM
TGI (MALME-3M melanoma): > 100 µM
TGI (MOLT-4 leukemia): > 100 µM
TGI (NCI-H226 lung): > 100 µM
TGI (NCI-H23 lung): > 100 µM
TGI (NCI-H460 lung): > 100 µM
TGI (NCI-H522 lung): > 100 µM
TGI (OVCAR-3 ovarian): > 100 µM
TGI (OVCAR-4 ovarian): > 100 µM
TGI (OVCAR-5 ovarian): > 100 µM
TGI (OVCAR-8 ovarian): > 100 µM
TGI (RPMI-8226 leukemia): > 100 µM
TGI (RXF 393 renal): > 100 µM
TGI (SF-268 CNS): > 100 µM
TGI (SF-295 CNS): > 100 µM
TGI (SF-539 CNS): > 100 µM
TGI (SK-MEL-2 melanoma): > 100 µM
TGI (SK-MEL-28 melanoma): > 100 µM
TGI (SK-MEL-5 melanoma): > 100 µM
TGI (SK-OV-3 ovarian): > 100 µM
TGI (SN12C renal): > 100 µM
TGI (SNB-19 CNS): > 100 µM
TGI (SNB-75 CNS): > 100 µM
TGI (SNB-78 CNS): > 100 µM
TGI (SW-620 colon): > 100 µM
TGI (TK-10 renal): > 100 µM
TGI (U251 CNS): > 100 µM
TGI (UACC-257 melanoma): > 100 µM
TGI (UACC-62 melanoma): > 100 µM
TGI (UO-31 renal): > 100 µM
TGI (XF 498 CNS): > 100 µM

O=C(N/N=C/c1cc(Br)cc(Br)c1[O-])c1ccccc1O.O=C(N/N=C/c1cc(Br)cc(Br)c1[O-])c1ccccc1O.[Co+2]
TGI (A549 NSCLC): 12.6 µM
TGI (ACHN renal): 11.1 µM
TGI (CAKI-1 renal): 5.93 µM
TGI (COLO 205 colon): 20.4 µM
TGI (EKVX NSCLC): 11.3 µM
TGI (HCC-2998 colon): 10.5 µM
TGI (HCT-116 colon): 17.7 µM
TGI (HCT-15 colon): 14.4 µM
TGI (HL-60(TB) leukemia): 0.906 µM
TGI (HOP-62 NSCLC): 10.3 µM
TGI (HOP-92 NSCLC): 6.13 µM
TGI (HT29 colon): 17.7 µM
TGI (IGROV1 ovarian): 8.44 µM
GI50 (K-562 leukemia): 0.643 µM
TGI (K-562 leukemia): 16.2 µM
TGI (KM12 colon): 21.1 µM
TGI (KM20L2 colon): 11.6 µM
TGI (LOX IMVI melanoma): 12.9 µM
TGI (M14 melanoma): 2.73 µM
TGI (MALME-3M melanoma): 18.5 µM
TGI (MOLT-4 leukemia): 14.3 µM
TGI (NCI-H226 lung): 7.39 µM
TGI (NCI-H23 lung): 7.57 µM
TGI (NCI-H460 lung): 20 µM
TGI (NCI-H522 lung): 2.49 µM
TGI (OVCAR-3 ovarian): 3.6 µM
TGI (OVCAR-4 ovarian): 3.15 µM
TGI (OVCAR-5 ovarian): 11.1 µM
TGI (OVCAR-8 ovarian): 12.5 µM
TGI (RXF 393 renal): 10.5 µM
TGI (SF-268 CNS): 13.9 µM
TGI (SF-295 CNS): 12.6 µM
TGI (SF-539 CNS): 4.66 µM
TGI (SK-MEL-2 melanoma): 5.4 µM
TGI (SK-MEL-28 melanoma): 14.5 µM
TGI (SK-MEL-5 melanoma): 2.96 µM
TGI (SK-OV-3 ovarian): 5.57 µM
TGI (SNB-19 CNS): 28.4 µM
TGI (SNB-75 CNS): 15.3 µM
TGI (SR leukemia): 3.29 µM
TGI (SW-620 colon): 17.2 µM
TGI (TK-10 renal): 14.1 µM
TGI (U251 CNS): 9.38 µM
TGI (UACC-257 melanoma): 17.6 µM
TGI (UACC-62 melanoma): 1.78 µM
TGI (UO-31 renal): 10.6 µM

O=C1c2ccccc2N2Oc3ccccc3C12c1ccccc1 (centres undefined)
TGI (786-0 renal): > 100 µM
TGI (A498 renal): > 100 µM
TGI (A549 NSCLC): > 100 µM
TGI (ACHN renal): > 100 µM
TGI (CCRF-CEM leukemia): > 100 µM
TGI (COLO 205 colon): > 100 µM
TGI (DMS 114 small cell lung): > 100 µM
TGI (DMS 273 small cell lung): > 100 µM
TGI (EKVX NSCLC): > 100 µM
TGI (HCC-2998 colon): > 100 µM
TGI (HCT-116 colon): > 100 µM
TGI (HCT-15 colon): > 100 µM
TGI (HL-60(TB) leukemia): > 100 µM
TGI (HOP-18 NSCLC): > 100 µM
TGI (HOP-62 NSCLC): > 100 µM
TGI (HOP-92 NSCLC): > 100 µM
TGI (HT29 colon): > 100 µM
TGI (IGROV1 ovarian): > 100 µM
TGI (K-562 leukemia): > 100 µM
TGI (KM20L2 colon): > 100 µM
TGI (LXFL 529 NSCLC): > 100 µM
TGI (M14 melanoma): > 100 µM
TGI (M19-MEL melanoma): > 100 µM
TGI (MALME-3M melanoma): > 100 µM
TGI (MOLT-4 leukemia): > 100 µM
TGI (NCI-H226 lung): > 100 µM
TGI (NCI-H23 lung): > 100 µM
TGI (NCI-H522 lung): > 100 µM
TGI (OVCAR-4 ovarian): > 100 µM
TGI (OVCAR-8 ovarian): > 100 µM
TGI (RPMI-8226 leukemia): > 100 µM
TGI (RXF 393 renal): > 100 µM
TGI (SF-268 CNS): > 100 µM
TGI (SF-295 CNS): > 100 µM
TGI (SF-539 CNS): > 100 µM
TGI (SK-MEL-28 melanoma): > 100 µM
TGI (SK-MEL-5 melanoma): > 100 µM
TGI (SK-OV-3 ovarian): > 100 µM
TGI (SN12C renal): > 100 µM
TGI (SNB-19 CNS): > 100 µM
TGI (SNB-75 CNS): > 100 µM
TGI (SNB-78 CNS): > 100 µM
TGI (SR leukemia): > 100 µM
TGI (SW-620 colon): > 100 µM
TGI (U251 CNS): > 100 µM
TGI (UACC-257 melanoma): > 100 µM
TGI (UACC-62 melanoma): > 100 µM
TGI (UO-31 renal): > 100 µM

CCOc1ccc(NC(=O)C(=O)C(C(=O)c2ccc3ccccc3c2)C2OC(=O)c3ccccc32)cc1 (centres undefined)
TGI (786-0 renal): 40.5 µM
TGI (A498 renal): 45.8 µM
TGI (A549 NSCLC): > 100 µM
TGI (ACHN renal): > 100 µM
TGI (CAKI-1 renal): > 100 µM
TGI (CCRF-CEM leukemia): 57.7 µM
TGI (COLO 205 colon): 41.7 µM
TGI (DLD-1 colon): 30.1 µM
TGI (DMS 114 small cell lung): 89.7 µM
TGI (DMS 273 small cell lung): 47 µM
TGI (EKVX NSCLC): > 100 µM
TGI (HCC-2998 colon): 23.2 µM
TGI (HCT-116 colon): 35.1 µM
TGI (HCT-15 colon): 43.4 µM
TGI (HOP-18 NSCLC): 78.1 µM
TGI (HOP-62 NSCLC): 39.4 µM
TGI (HOP-92 NSCLC): 68.3 µM
TGI (HT29 colon): > 100 µM
TGI (IGROV1 ovarian): 52.5 µM
TGI (K-562 leukemia): > 100 µM
TGI (KM12 colon): > 100 µM
TGI (KM20L2 colon): > 100 µM
TGI (LOX IMVI melanoma): 33.2 µM
TGI (LXFL 529 NSCLC): 37.4 µM
TGI (M14 melanoma): 42.2 µM
TGI (M19-MEL melanoma): 34.6 µM
TGI (MALME-3M melanoma): 77.4 µM
TGI (MOLT-4 leukemia): 43.7 µM
TGI (NCI-H226 lung): 13.5 µM
TGI (NCI-H23 lung): 33 µM
TGI (NCI-H460 lung): > 100 µM
TGI (NCI-H522 lung): 31.6 µM
TGI (OVCAR-3 ovarian): 86.8 µM
TGI (OVCAR-4 ovarian): 44.5 µM
TGI (OVCAR-5 ovarian): 84.9 µM
TGI (OVCAR-8 ovarian): > 100 µM
TGI (RPMI-8226 leukemia): 38.4 µM
TGI (SF-268 CNS): 62.4 µM
TGI (SF-539 CNS): 39 µM
TGI (SK-MEL-2 melanoma): 37.2 µM
TGI (SK-MEL-28 melanoma): 37.5 µM
TGI (SK-MEL-5 melanoma): 31.9 µM
TGI (SK-OV-3 ovarian): > 100 µM
TGI (SN12C renal): 44 µM
TGI (SNB-19 CNS): > 100 µM
TGI (SNB-75 CNS): 64.9 µM
TGI (SNB-78 CNS): 64.9 µM
TGI (SW-620 colon): 92.6 µM
TGI (TK-10 renal): > 100 µM
TGI (U251 CNS): 24.4 µM
TGI (UACC-257 melanoma): 81.9 µM
TGI (UACC-62 melanoma): 27.2 µM
TGI (UO-31 renal): 34 µM
TGI (XF 498 CNS): 60.6 µM
